In the supplement of paper PMC10307832:

Tests used:
Assay in all cases: relative viability (nuclei count vs DMSO), 5 days (fraction); higher = more cells survive
[1] = compound: COc1cc2nc(N3CCCN(C)CC3)nc(NC3CCN(Cc4ccccc4)CC3)c2cc1OC + CC(=O)c1c(C)c2cnc(Nc3ccc(N4CCNCC4)cn3)nc2n(C2CCCC2)c1=O [Palbociclib] (partner 0.5 µM)
Summary of the method: (§1)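 The day after seeding in 1536-well plates, lung cancer cell lines were treated by pin tool with a single drug, or with a fixed anchor-drug dose together with five library-drug doses (not always all listed) in √10 steps. After 5 days, a combined fix-and-stain solution (final 0.05% Triton X-100, 1% formaldehyde, 1 ug/ml Hoechst) was added. Nuclei counted on 4× images gave relative viability as treated counts over vehicle counts, reported as the median of duplicate plates.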

[2] = compound: COc1cc2nc(N3CCCN(C)CC3)nc(NC3CCN(Cc4ccccc4)CC3)c2cc1OC + CC1(C)CCC(c2ccc(Cl)cc2)=C(CN2CCN(c3ccc(C(=O)NS(=O)(=O)c4ccc(N[C@H](CCN5CCOCC5)CSc5ccccc5)c(S(=O)(=O)C(F)(F)F)c4)cc3)CC2)C1 [Navitoclax] (partner 0.5 µM)
Summary of the method: as §1

AZD6482 + Crizotinib = compound: Cc1cc([C@@H](C)Nc2ccccc2C(=O)O)c2nc(N3CCOCC3)cc(=O)n2c1 [AZD6482] + C[C@@H](Oc1cc(-c2cnn(C3CCNCC3)c2)cnc1N)c1c(Cl)ccc(F)c1Cl [Crizotinib] (partner 1 µM)
Summary of the method: as §1

AZD6482 + Linsitinib = compound: Cc1cc([C@@H](C)Nc2ccccc2C(=O)O)c2nc(N3CCOCC3)cc(=O)n2c1 [AZD6482] + C[C@]1(O)C[C@@H](c2nc(-c3ccc4ccc(-c5ccccc5)nc4c3)c3c(N)nccn32)C1 [Linsitinib] (partner 1 µM)
Summary of the method: as §1

| Cell Line | relative viability ([1]; first compound 0.2 µM) | relative viability ([1]; first compound 0.6325 µM) | relative viability ([1]; first compound 2 µM) | relative viability ([1]; first compound 6.325 µM) | relative viability ([2]; first compound 0.2 µM) | relative viability ([2]; first compound 0.6325 µM) | relative viability ([2]; first compound 2 µM) | relative viability ([2]; first compound 6.325 µM) | relative viability (AZD6482 + Crizotinib; first compound 0.08 µM) | relative viability (AZD6482 + Crizotinib; first compound 0.253 µM) | relative viability (AZD6482 + Crizotinib; first compound 0.8 µM) | relative viability (AZD6482 + Crizotinib; first compound 2.53 µM) | relative viability (AZD6482 + Crizotinib; first compound 8 µM) | relative viability (AZD6482 + Linsitinib; first compound 0.08 µM) | relative viability (AZD6482 + Linsitinib; first compound 0.253 µM) | relative viability (AZD6482 + Linsitinib; first compound 0.8 µM) | relative viability (AZD6482 + Linsitinib; first compound 2.53 µM) | relative viability (AZD6482 + Linsitinib; first compound 8 µM) |
| --- | --- | --- | --- | --- | --- | --- | --- | --- | --- | --- | --- | --- | --- | --- | --- | --- | --- | --- |
| NCI-H838 | 0.185 | 0.229 | 0.213 | 0.212 | 1.17 | 1.13 | 1.27 | 1.08 | 0.593 | 0.824 | 0.689 | 0.48 | 0.583 | 0.805 | 0.994 | 0.934 | 0.614 | 0.769 |
| NCI-H1355 | 0.404 | 0.379 | 0.423 | 0.386 | 0.918 | 0.947 | 1.01 | 0.921 | 0.777 | 0.959 | 1.07 | 0.797 | 0.726 | 0.472 | 0.55 | 0.576 | 0.526 | 0.536 |
| NCI-H1437 | 0.29 | 0.319 | 0.32 | 0.279 | 1.12 | 1.04 | 1.17 | 1.04 | 0.921 | 0.949 | 1.02 | 0.788 | 0.872 | 0.943 | 1.08 | 0.998 | 0.574 | 0.657 |
| NCI-H1651 | 0.518 | 0.5 | 0.515 | 0.522 | 1.14 | 1.02 | 1.42 | 1.03 | 0.816 | 0.857 | 0.874 | 0.835 | 0.729 | 0.674 | 0.663 | 0.733 | 0.63 | 0.591 |
| NCI-H1666 | 0.644 | 0.633 | 0.648 | 0.633 | 0.934 | 1.16 | 1.03 | 0.642 | 0.84 | 1.11 | 0.823 | 0.712 | 0.989 | 0.536 | 0.586 | 0.63 | 0.589 | 0.574 |
| NCI-H1734 | 0.375 | 0.367 | 0.292 | 0.38 | 0.883 | 0.757 | 0.83 | 0.599 | 0.627 | 0.733 | 0.622 | 0.47 | 0.471 | 0.666 | 0.589 | 0.701 | 0.384 | 0.554 |
| NCI-H1755 | 0.446 | 0.452 | 0.393 | 0.399 | 0.995 | 0.972 | 0.951 | 0.968 | 0.717 | 0.769 | 0.704 | 0.545 | 0.487 | 0.87 | 0.864 | 0.75 | 0.497 | 0.467 |
| NCI-H1792 | 0.637 | 0.654 | 0.609 | 0.685 | 0.665 | 0.639 | 0.66 | 0.629 | 0.909 | 0.828 | 0.983 | 0.717 | 0.444 | 0.313 | 0.41 | 0.501 | 0.319 | 0.271 |
| NCI-H1915 | 0.527 | 0.504 | 0.607 | 0.461 | 0.805 | 0.772 | 0.843 | 0.797 | 0.845 | 0.8 | 0.935 | 0.838 | 0.863 | 0.982 | 1.1 | 1.09 | 1.03 | 1.1 |
